The record followed here is US9861616B2, “Methods for treating respiratory diseases and formulations therefor” (priority 2013, dated 2018).

The nature of data set [1]: Plasma and ELF pharmacokinetics in healthy mice. It counts as in vivo. As for the experimental part: (§1) CEM-101 PK data were obtained from healthy mice administered single CEM-101 doses ranging from 0.625 to 40 mg/kg. Plasma and ELF were collected over 24 h (3 mice/time point) and assayed for CEM-101. Urea in plasma and ELF was used to correct ELF concentrations. Neutropenic mice infected with 10^8 CFU of 1 of 5 S. pneumoniae isolates via inhalation were administered daily CEM-101 doses (0.156 to 160 mg/kg) via oral gavage. Dose-fractionation was performed for 1 isolate; CEM-101 was administered to the other 4 isolates as a Q6h or Q12h regimen. PK and PK-PD were evaluated using S-ADAPT 1.56.
(§2) A 3-compartment model with a parallel first-order and capacity-limited clearance and a capacity-limited first pass effect with fitted lag-times best described the plasma and ELF data (r2=0.98 and 0.83 for observed vs fitted concentrations, respectively). ELF to total- and free-drug (f) plasma (based on protein binding of 91.8% in mice) AUC0-24 ratios were 0.22 and 2.7, respectively. ELF and f plasma AUC0-24:MIC ratios were most predictive of efficacy (r2=0.85 for ELF and f plasma). […] AUC0-24:MIC ratio was the PK-PD index most predictive of efficacy for CEM-101. PK-PD targets based on these relationships will inform dose selection for future clinical studies.

Data set [2] relates to B. cepacia strains from cystic fibrosis patients. In words: Macrobroth dilution MICs, CF strains. Type of data set: cell-based. The note with it: 2 B. cepacia strains from cystic fibrosis patients. On the procedure:
(§3) Two strains each of mucoid P. aeruginosa (both pyocyanin positive) and […] MRSA (only one strain with gold colonies) isolated from patients at a CF clinic were tested. Additionally, 2 B. cepacia strains were acquired, from Hershey Medical Center. All strains were identified by standard methods. Only one strain per patient was tested. MLVA was done on all strains to examine clonality, and confirmed that examination is not taking place on only one or a few clones. Strains will be stored in skim milk at −70° C. until use.
(§4) Original MICs of each strain to CEM-101 and other comparators were tested by CLSI microdilution methodology. Trays were obtained from Trek, Inc., Cleveland, Ohio. Time-kill macrobroth MIC dilution by CLSI was performed for all synergy testing.
(In general: Broth dilution looks for growth in wells or tubes with falling amounts of substance.)

Data set [3] concerns P. aeruginosa strains from cystic fibrosis patients. Nature of the data set: Macrobroth dilution MICs, CF strains. It counts as cell-based. The conditions noted are these: 2 P. aeruginosa strains from cystic fibrosis patients. As for the experimental part:
as §3, §4

A short description of data set [4]: Intrapulmonary penetration into ELF and AM, Phase 1 clinical study. It counts as in vivo, healthy adult subjects. The conditions noted are these: 400 mg orally daily for 5 days, Day 5, 24 hour period. As for the experimental part:
CEM-101 is evaluated for the treatment of patients with community-acquired bacterial pneumonia. The penetration of CEM-101 into the epithelial lining fluid (ELF) and alveolar macrophages (AM) is assessed in a Phase 1 clinical study.
30 subjects received 400 mg of CEM-101 orally daily for 5 days. On Day 5, each subject underwent a single bronchoscopy and bronchoalveolar lavage at 1 of 5 time points (3, 6, 9, 12 or 24 h post-dose) to obtain ELF and AM samples (6 subjects/time point). Plasma samples were collected pre-dose on Days 1 to 5 and serially post-dose on Day 5 and 6. The samples collected were assayed for CEM-101 using LC/MS/MS. Urea in the plasma and ELF was used to correct the ELF CEM-101 concentrations. Noncompartmental pharmacokinetic (PK) analysis using the median concentrations at each time point was used to calculate Day 5 AUC0-24. In addition, a population PK model (PPM) was used to determine Day 5 AUC0-24 for each subject in plasma and ELF. Intrapulmonary penetration of CEM-101 into the ELF and AM was determined by dividing the Day 5 AUC0-24 of each matrix by the Day 5 plasma AUC0-24.

A short description of the next data set: Tissue distribution. Type of data set: in vivo, monkey.
A further data set can be described thus: Protein binding. Type of data set: in vitro ADME. The conditions noted are these: mice.
Description: as §2

For data set [5], the system named is P. aeruginosa PSAR 461, PSAR 468. Nature of the data set: Time-kill macrobroth MICs. It counts as cell-based. On the procedure: as §4
(§5) Two of the MRSA strains were chosen and tested for synergy, together with the 4 Gram-negative strains mentioned above. Broth macrodilution formed the basis of MICs used in time-kill experiments, as detailed below. The kill kinetics of each drug was tested alone by incubating an initial inoculum of 5×10^5 to 5×10^6 cfu/mL with drug concentrations at the MIC, three dilutions above and three dilutions below the MIC (½, ¼ and ⅛×MIC). Viability counts were performed after 0, 3, 6, 12 and 24 h incubation at 37° C. in a shaking water bath by plating onto trypticase soy-5% sheep blood agar plates.

In data set [6] the test system is B. cepacia BCEP 953, BCEP 954. In words: Time-kill macrobroth MICs. Type of data set: cell-based. On the procedure:
as §4, §5

The next data set concerns S. pneumoniae. In words: PK-PD analysis in neutropenic murine-lung infection model. It counts as in vivo. The note with it: neutropenic mice. As for the experimental part: Using a murine-lung infection model, epithelial lining fluid (ELF) and plasma PK-PD measures most closely associated with CEM-101 efficacy against S. pneumoniae and targets based on PK-PD relationships for such indices were identified.
as §1

A short description of data set [7]: Rodent ADME studies using radiolabeled CEM-101. Type of data set: in vivo. The note with it: IV 20 mg/kg. On the procedure: This relationship was confirmed in rodent ADME studies using radiolabeled CEM-101. […] After IV dosing at 20 mg/kg, the data was more variable and lung/plasma ratios of 17.6 for males and 6.2 for females were observed.
Data set [8] in a line: Tissue levels in repeat-dose toxicology studies. The conditions noted are these: repeated dosing. It counts as in vivo, rodents and non human primates.

Turning to `CC[C@H]1OC(=O)[C@@](C)(F)C(=O)[C@H](C)[C@@H](O[C@@H]2O[C@H](C)C[C@H](N(C)C)[C@H]2O)[C@](C)(OC)C[C@@H](C)C(=O)[C@H](C)[C@H]2N(CCCCn3cc(-c4cccc(N)c4)nn3)C(=O)O[C@]12C` [CEM-101, solithromycin], in data set [1], the “ELF to total-drug plasma AUC0-24 ratio” value was found to be 0.22. Besides, the “ELF to free-drug (f) plasma AUC0-24 ratio” value in data set [1] (based on protein binding of 91.8%) was determined as 2.7. The “MIC Range” value in [2] lay within 8 to 32 µg/mL. Moreover, the “MIC Range” value in data set [3] was 64 µg/mL. Further, in data set [4], the “exposure in AM compared to plasma” value is over 180 times and the “exposure in ELF compared to plasma” value is over 8 times. For the same compound, in “Tissue distribution” (monkey), the “heart concentration relative to plasma” value was determined as 54 fold. Further, in “Tissue distribution” (monkeys, 200 mg/kg/d), the “liver concentration relative to plasma” value turned out to be 711 fold and the “lung concentration relative to plasma” value amounted to 503 fold. In addition, the protein binding in “Protein binding” was found to be 91.8%. The “Time-kill Macrobroth MIC” value in [5] (strain PSAR 461) was 64.0 µg/mL. Further, the “Time-kill Macrobroth MIC” value in data set [5] (strain PSAR 468) was determined as 32.0 µg/mL. The “Time-kill Macrobroth MIC” value in data set [6] (strain BCEP 953) was found to be 8.0 µg/mL. Moreover, the “Time-kill Macrobroth MIC” value in [6] (strain BCEP 954) turned out to be 32.0 µg/mL. Moreover, in the data set with S. pneumoniae, the “ELF AUC0-24:MIC ratio associated with 1-log 10 CFU reduction from baseline” value came to 15.1, the “ELF AUC0-24:MIC ratio associated with 2-log 10 CFU reduction from baseline” value was found to be 59.8, the “ELF AUC0-24:MIC ratio associated with net bacterial stasis” value worked out at 1.26 and the “f plasma AUC0-24:MIC ratio associated with 1-log 10 CFU reduction from baseline” value is given as 6.31. Also, in the data set with S. pneumoniae, the “f plasma AUC0-24:MIC ratio associated with 2-log 10 CFU reduction from baseline” value is recorded as 12.8 and the “f plasma AUC0-24:MIC ratio associated with net bacterial stasis” value was determined as 1.65. In addition, the lung/plasma ratio in [7] (females) is on record as 6.2. Also, the lung/plasma ratio in data set [7] (males) is given as 17.6. The “tissues with highest concentrations” value in [8] was “highest in liver, spleen, lung, and salivary gland”.
